pEC50, pIC50: −log10 of the molar value. Where “and” joins values, the source holds several entries; their conditions need not be identical. Equal entries are not always repeated. Calls of active or inactive are those of the source.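 The calls were made as follows: active = compounds giving half or more protection of infected cells from virus-caused growth loss, again on retest; inactive = the rest.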

For 50 compounds, EC50, IC50 and outcome results are on record in PubChem BioAssay AID179 (DTP/NCI, 2004).

This assay deals with CEM cells HIV-1 protection, formazan growth assay. The assay is described as follows: NCI AIDS Antiviral Assay. The note with it: for pIC50: measured here: growth of uninfected CEM cells. The gist of the method:
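Protection of CEM cells against HIV-1 measured as cell growth via soluble formazan read-out, with five concentrations tested on both infected and uninfected cells; failure to protect may reflect toxicity.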

Consider `O=C(/C=C(\C(=O)c1cccs1)c1cccs1)c1ccc(C(=O)/C=C(\C(=O)c2cccs2)c2cccs2)cc1`, for which the pEC50 (as a rule, the EC50 on a negative log10 scale, so that one unit is a factor of ten) is below 3.70 and the pIC50 (commonly −log10 of the IC50, conventionally taken in molar units) is below 3.70.

Take `CCCCCCCCCCCCCCCCCC(=O)O[C@H](COC(=O)CCCCCCCCCCC)COC(=O)CCCCCCCCCCCCCCC`: the pEC50 is below 4.00 and the pIC50 was below 4.00. Take `CCOP(=O)(OCC)C(C)(CC)NC1=NC(C(F)(F)F)(C(F)(F)F)NC(=O)N1` (configuration not stated): the pEC50 is below 3.70 and the pIC50 is below 3.70.

In the case of `CSc1ncccc1C(=O)[O][Sn]([c]1ccccc1)([c]1ccccc1)[c]1ccccc1`, the pEC50 is below 5.70 and the pIC50 is 6.50.

In the case of `O=C1CC(NC(=O)C(F)(F)F)c2c(Br)sc(N3CCNCC3)c21` (configuration not stated), the pEC50 is below 3.70 and the pIC50 was 3.79. Consider `O=C1CCC2(c3ccc(Cl)cc3)SCCN12` (configuration not stated), for which the pEC50 is below 3.70 and the pIC50 is 3.84.

Turning to `O=c1c2ccccc2oc2cc3c(c(O)c12)CCCC3`, the pEC50 was below 3.70 and the pIC50 is below 3.70. In the case of `Cn1nc(-c2ccc3c(c2)OCO3)[n+]([O-])c2c(=O)n(C)c(=O)nc1-2`, the pEC50 was below 3.70 and the pIC50 was 6.42. As to `Cc1nnc2n1N=C(c1ccc(-c3ccc([N+](=O)[O-])cc3)o1)CS2`, the pEC50 was below 5.23 and the pIC50 was below 5.23. For `O=C1CN(C=C(C(=O)c2ccccc2)C(=O)c2ccccc2)C(=S)N1`, the result was inactive. In the case of `O=C(NC/C(Br)=C/Br)Nc1cnc2ccccc2c1`, the pEC50 was below 3.70 and the pIC50 was 4.09.

Regarding `CCN(CC)C(=O)O/N=C/c1ccccc1`, the pEC50 was below 3.70 and the pIC50 was below 3.70. In the case of `N#C/C(=C1\SCC(=O)N1c1ccccc1)c1nc2ccccc2[nH]1`, the pEC50 was below 5.36 and the pIC50 was below 5.36.

On to `O=C(CCCn1ccnc1[N+](=O)[O-])NCCn1ccnc1[N+](=O)[O-]`, for which the pEC50 is below 3.70 and the pIC50 is below 3.70.

Regarding `CCOC(=O)C1([Se]c2ccccc2)CCCC1=O` (configuration not stated), the pEC50 was below 3.66 and the pIC50 is 4.69. For the compound `Cc1cccc(CC(Cc2ccc(C)cc2C(=O)O)C(=O)O)c1` (configuration not stated), the pEC50 is below 3.70 and the pIC50 is below 3.70. Turning to `CCOC(=O)N(CCCCCCNC(c1ccccc1)S(=O)(=O)O)c1ccccc1` (configuration not stated), the pEC50 is below 3.70 and the pIC50 is 5.74. Take `Nc1nc(Cl)cc(NCC2(CO)CCC(O)C2)n1` (configuration not stated): the pEC50 is below 3.70 and the pIC50 is below 3.70. As for `CC(=O)[O-].[Ni].c1ccc(/C(=N\Nc2ccccn2)c2ccccn2)cc1`, the result was inactive.

Regarding `CN1CCC/C1=C1/C(=O)N(c2ccccc2)N=C1c1ccc[nH]1`, the pEC50 was 3.72 and the pIC50 was below 3.70. For the compound `COc1ccc2cc(C(=O)NCCCNC(=O)c3ccc4c(OC)c(OC)ccc4c3)ccc2c1OC`, the pEC50 was below 3.70 and the pIC50 was below 3.70.

As for `Cc1ccc(C2C(C(=O)C(C)(C)C)N2S(=O)(=O)c2ccc(C)cc2)cc1` (configuration not stated), the pEC50 is below 3.70 and the pIC50 was below 3.70. Consider `O=C(O)C1(CC(CCCN2CCCCC2)c2ccccc2)CCCC1` (configuration not stated), for which the pEC50 was below 3.70 and the pIC50 is 3.72. For `O=C(NCC(C(=O)OCc1ccccc1)C(=O)OCc1ccccc1)OCc1ccccc1`, in that order: below 3.70 and 4.20.

Turning to `CN1C(=O)NC2ON=C(c3ccccc3)C2C1=O` (configuration not stated), the pEC50 was below 3.70 and the pIC50 is 4.27. `COc1cc(OC)c2c(=O)cc(-c3ccncc3)oc2c1`: the outcome was inactive. As to `NC(=O)CN1CC(C2=C(O)CN(CC(N)=O)C2=O)=CC1=O`, the result was inactive. As for `O=[N+]([O-])c1ccccc1S(=O)(=O)c1ccc(Cl)cc1`, the pEC50 was 4.91 and 4.68; the negative logarithm of the IC50 (pIC50) was 4.30 and 4.09. Take `CC(C)(C)c1cc(C(C)(C)C)c2[n+]([O-])ssc1-2`: the pEC50 is below 3.84 and the pIC50 was 4.69. For `O=[N+]([O-])c1ccc(S(=O)(=O)c2ccccc2)c([N+](=O)[O-])c1`, the result was inactive. Take `COC[C@]12CN(C=O)[C@H]3C4[C@H](OC)[C@H]1C3([C@@H](OC)C[C@H]2O)[C@@H]1C[C@@]2(O)[C@H](OC(=O)c3ccccc3)[C@@H]1[C@]4(OC(C)=O)[C@@H](O)[C@@H]2OC`: the pEC50 is below 3.70 and the pIC50 is below 3.70.

Consider `O=C(CC/C(CC(=O)c1ccc(Cl)cc1)=N\O)Nc1cccc(Cl)c1`, for which the pEC50 was below 3.46 and the pIC50 is 3.59. For `CC(=O)[O-].O=S(=O)(Nc1ncccn1)c1ccc(N=Cc2ccccc2O)cc1.O=S(=O)(Nc1ncccn1)c1ccc(N=Cc2ccccc2O)cc1.[Cu+2]`, in that order: below 3.70 and 4.42.

Take `CN(C)S(=O)(=O)N1C(=O)c2ccccc2C1=O`: the pEC50 was below 3.99 and the pIC50 is below 3.99. As for `CCOC(=O)C(Cc1c(-c2[nH]c3ccccc3c2CC(NC(=O)CNC(C)=O)C(=O)OCC)[nH]c2ccccc12)NC(=O)CNC(C)=O` (configuration not stated), the pEC50 was below 4.00 and the pIC50 is 4.66. On to `CC1=C/C(=N\N(C)C)C(C(O)(C(F)(F)F)C(F)(F)F)C(C)(C)C1` (configuration not stated), for which the pEC50 is below 3.70 and the pIC50 is 3.99. `O=C(O)c1cc(N=Nc2c(O)cc(O)cc2C(=O)O)ccc1/C=C/c1ccc(N=Nc2c(O)cc(O)cc2C(=O)O)cc1C(=O)O`: the pEC50 was 4.06 and the pIC50 was 4.02.

On to `COc1cnn(-c2ccccc2)c(=O)c1SCc1ccc(Cl)c(Cl)c1`, for which the pEC50 was below 4.46 and the pIC50 is 4.56.

Take `COC(=O)C1=C(C(=O)OC)SC(=C2c3ccsc3-c3sccc32)S1`: the pEC50 is below 3.70 and the pIC50 was below 3.70.

In the case of `CN1CCN(c2cc3nc(-c4ccc(Cl)cc4)[nH]c3cc2F)CC1`, the pEC50 is below 3.70 and the pIC50 was 4.94. With `C=C[C@H]1C=Cc2ccccc2[C@]1(C=O)CCC1(C)OCCO1`, the pEC50 was below 3.08 and the pIC50 is 3.17. Take `COC(=O)C1C(=O)C(C(=O)OC)C23C(C)CCC12C(C(=O)OC)C(=O)C3C(=O)OC` (configuration not stated): the pEC50 is below 4.33 and the pIC50 is below 4.33. For `COc1cccc(/C=N/[N-]C(=O)c2ccncc2)c1[O-].[OH3+].[Zn+2]`, the pEC50 is below 5.53 and the pIC50 is below 5.53. Consider `CCCC(CC)c1c(O)c(O)c(C(CC)CCC)c(C(CC)CCC)c1C(CC)CCC` (configuration not stated), for which the pEC50 was below 4.00 and the pIC50 is 4.81. On to `CN(C)CCNC(=O)c1cccc2c(Nc3ccc(S(=O)(=O)N=C(N)N)cc3)c3ccccc3nc12`, for which the result was inactive. For `c1csc(-c2cc(-c3ccsc3)cs2)c1`, the pEC50 is below 3.70 and the pIC50 was below 3.70. Turning to `CCOC(=O)C1=C(C)NC(C)=C(C(=O)OCC)C1c1cccc([N+](=O)[O-])c1`, the result was inactive. Take `CC(=O)OC[C@]12[C@H](OC(C)=O)[C@H](OC(C)=O)[C@@H]3C(O)[C@@]14OC3(C)COC(=O)c1cccnc1CCC(C)C(=O)OC([C@H](OC(C)=O)[C@@H]2OC(=O)c1ccccc1)[C@]4(C)O` (some centres not stated): the pEC50 is below 4.52 and the pIC50 is below 4.52. Turning to `O=C(O)C(CS)N=c1c2ccccc2n(O)c2ccccc12` (configuration not stated), the result was inactive. Regarding `O=[N+]([O-])c1nccn1CC(O)c1ccccc1` (configuration not stated), the pEC50 is below 2.97 and the pIC50 was below 2.97.
